Data as given in the kinase profiling compilation of Christmann-Franck et al. (2016).
Several values for one entry are separate records, joined by “and”; a condition that tells them apart may be missing. Equal entries are not always repeated. Blank lines part the entries; values can stand above or below the molecule they belong to.

How the values were obtained:
Test in all cases: radiometric filter-binding kinase assay, Kinase HotSpot
Conditions in all cases: compound 0.5 µM; ATP 10 µM
STK4 (human) = STK4 (human) (UniProt Q13043)
MAP3K9 (human) = MAP3K9 (human) (UniProt P80192)
AURKB (human) = AURKB (human) (UniProt Q96GD4)
MAP4K5 (human) = MAP4K5 (human) (UniProt Q9Y4K4)
CSNK1G3 (human) = CSNK1G3 (human) (UniProt Q9Y6M4)
SRPK1 (human) = SRPK1 (human) (UniProt Q96SB4)
EPHB2 (human) = EPHB2 (human) (UniProt P29323)
EGFR (human) = EGFR (human) (UniProt P00533)
TEK (human) = TEK (human) (UniProt Q02763)
MARK4 (human) = MARK4 (human) (UniProt Q96L34)
PRKCA (human) = PRKCA (human) (UniProt P17252)
PIM2 (human) = PIM2 (human) (UniProt Q9P1W9)
PKN2 (human) = PKN2 (human) (UniProt Q16513)
TNK2 (human) = TNK2 (human) (UniProt Q07912)
PRKD1 (human) = PRKD1 (human) (UniProt Q15139)
CAMK1D (human) = CAMK1D (human) (UniProt Q8IU85)
CDK6 CCND3 (human) = CDK6 CCND3 (human) (UniProt P30281+Q00534)
CDK5 CDK5R1 p35 (human) = CDK5 CDK5R1 p35 (human) (UniProt Q00535+Q15078)
MAP3K3 (human) = MAP3K3 (human) (UniProt Q99759)
PRKCB2 (human) = PRKCB2 (human) (UniProt P05771)
[1] = biological target: JAK1 JH1 catalytic (human) (UniProt P23458)
HCK (human) = HCK (human) (UniProt P08631)
MAP3K11 (human) = MAP3K11 (human) (UniProt Q16584)
ACVRL1 (human) = ACVRL1 (human) (UniProt P37023)
IGF1R (human) = IGF1R (human) (UniProt P08069)
TYRO3 (human) = TYRO3 (human) (UniProt Q06418)
MAPKAPK3 (human) = MAPKAPK3 (human) (UniProt Q16644)
MAP3K14 (human) = MAP3K14 (human) (UniProt Q99558)
RPS6KA4 KD2 (human) = RPS6KA4 KD2 (human) (UniProt O75676)
PDGFRA (human) = PDGFRA (human) (UniProt P16234)
LYN (human) = LYN (human) (UniProt P07948)
PRKG1 (human) = PRKG1 (human) (UniProt Q13976)
ABL1 (human) = ABL1 (human) (UniProt P00519)
WNK3 (human) = WNK3 (human) (UniProt Q9BYP7)
RPS6KB2 (human) = RPS6KB2 (human) (UniProt Q9UBS0)
PLK2 (human) = PLK2 (human) (UniProt Q9NYY3)
SLK (human) = SLK (human) (UniProt Q9H2G2)
EPHA5 (human) = EPHA5 (human) (UniProt P54756)
MAP4K2 (human) = MAP4K2 (human) (UniProt Q12851)
STK39 (human) = STK39 (human) (UniProt Q9UEW8)
MAP3K10 (human) = MAP3K10 (human) (UniProt Q02779)
CLK3 (human) = CLK3 (human) (UniProt P49761)

Chain of MAP4K5 (human) (Q9Y4K4 whole entry, looked up): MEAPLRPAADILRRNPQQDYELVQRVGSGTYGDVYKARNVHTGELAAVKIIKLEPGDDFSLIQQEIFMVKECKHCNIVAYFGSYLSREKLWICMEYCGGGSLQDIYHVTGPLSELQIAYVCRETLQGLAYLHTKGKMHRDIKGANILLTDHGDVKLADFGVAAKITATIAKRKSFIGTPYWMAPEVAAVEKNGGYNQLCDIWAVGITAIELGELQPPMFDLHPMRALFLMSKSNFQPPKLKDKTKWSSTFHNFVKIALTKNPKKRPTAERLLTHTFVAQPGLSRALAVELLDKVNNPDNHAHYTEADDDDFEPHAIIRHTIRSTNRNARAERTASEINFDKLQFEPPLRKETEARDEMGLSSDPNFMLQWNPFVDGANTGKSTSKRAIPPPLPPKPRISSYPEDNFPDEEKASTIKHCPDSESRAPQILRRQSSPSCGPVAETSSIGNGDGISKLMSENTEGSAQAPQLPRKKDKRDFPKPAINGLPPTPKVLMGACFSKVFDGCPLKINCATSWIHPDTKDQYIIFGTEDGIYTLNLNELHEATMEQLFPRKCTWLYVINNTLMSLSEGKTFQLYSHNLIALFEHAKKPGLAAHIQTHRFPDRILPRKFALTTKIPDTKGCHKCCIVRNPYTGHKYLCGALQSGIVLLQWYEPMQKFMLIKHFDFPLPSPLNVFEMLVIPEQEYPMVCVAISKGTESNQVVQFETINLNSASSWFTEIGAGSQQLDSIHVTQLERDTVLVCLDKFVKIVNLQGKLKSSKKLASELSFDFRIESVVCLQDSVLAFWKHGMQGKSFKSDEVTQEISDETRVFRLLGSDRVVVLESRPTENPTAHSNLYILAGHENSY
Chain of RPS6KB2 (human) (Q9UBS0 whole entry, looked up): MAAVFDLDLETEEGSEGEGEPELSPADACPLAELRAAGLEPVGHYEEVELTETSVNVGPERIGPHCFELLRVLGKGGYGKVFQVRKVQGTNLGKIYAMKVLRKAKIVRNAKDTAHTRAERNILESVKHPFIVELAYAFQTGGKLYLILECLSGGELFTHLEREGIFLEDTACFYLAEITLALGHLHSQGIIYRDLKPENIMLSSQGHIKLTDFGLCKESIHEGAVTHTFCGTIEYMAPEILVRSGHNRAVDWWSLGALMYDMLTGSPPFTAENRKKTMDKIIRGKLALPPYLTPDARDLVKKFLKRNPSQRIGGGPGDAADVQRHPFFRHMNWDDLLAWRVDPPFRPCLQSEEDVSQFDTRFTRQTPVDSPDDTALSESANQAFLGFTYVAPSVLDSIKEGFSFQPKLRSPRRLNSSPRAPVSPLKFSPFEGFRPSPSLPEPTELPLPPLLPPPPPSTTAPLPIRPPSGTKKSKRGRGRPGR
Chain of STK4 (human) (Q13043 whole entry, looked up): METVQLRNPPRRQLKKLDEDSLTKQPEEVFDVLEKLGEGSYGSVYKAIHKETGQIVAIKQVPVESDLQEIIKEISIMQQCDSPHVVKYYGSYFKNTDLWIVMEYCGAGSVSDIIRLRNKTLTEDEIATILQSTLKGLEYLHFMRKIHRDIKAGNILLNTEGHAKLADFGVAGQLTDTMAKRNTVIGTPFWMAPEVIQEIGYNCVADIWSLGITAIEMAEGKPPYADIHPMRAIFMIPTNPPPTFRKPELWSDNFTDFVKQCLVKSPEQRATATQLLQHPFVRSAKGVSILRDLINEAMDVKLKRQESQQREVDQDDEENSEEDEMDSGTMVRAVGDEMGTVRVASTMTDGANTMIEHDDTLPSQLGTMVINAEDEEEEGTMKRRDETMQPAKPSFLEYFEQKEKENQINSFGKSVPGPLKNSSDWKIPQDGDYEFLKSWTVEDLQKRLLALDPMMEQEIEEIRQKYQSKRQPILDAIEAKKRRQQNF
Chain of MAP3K10 (human) (Q02779 whole entry, looked up): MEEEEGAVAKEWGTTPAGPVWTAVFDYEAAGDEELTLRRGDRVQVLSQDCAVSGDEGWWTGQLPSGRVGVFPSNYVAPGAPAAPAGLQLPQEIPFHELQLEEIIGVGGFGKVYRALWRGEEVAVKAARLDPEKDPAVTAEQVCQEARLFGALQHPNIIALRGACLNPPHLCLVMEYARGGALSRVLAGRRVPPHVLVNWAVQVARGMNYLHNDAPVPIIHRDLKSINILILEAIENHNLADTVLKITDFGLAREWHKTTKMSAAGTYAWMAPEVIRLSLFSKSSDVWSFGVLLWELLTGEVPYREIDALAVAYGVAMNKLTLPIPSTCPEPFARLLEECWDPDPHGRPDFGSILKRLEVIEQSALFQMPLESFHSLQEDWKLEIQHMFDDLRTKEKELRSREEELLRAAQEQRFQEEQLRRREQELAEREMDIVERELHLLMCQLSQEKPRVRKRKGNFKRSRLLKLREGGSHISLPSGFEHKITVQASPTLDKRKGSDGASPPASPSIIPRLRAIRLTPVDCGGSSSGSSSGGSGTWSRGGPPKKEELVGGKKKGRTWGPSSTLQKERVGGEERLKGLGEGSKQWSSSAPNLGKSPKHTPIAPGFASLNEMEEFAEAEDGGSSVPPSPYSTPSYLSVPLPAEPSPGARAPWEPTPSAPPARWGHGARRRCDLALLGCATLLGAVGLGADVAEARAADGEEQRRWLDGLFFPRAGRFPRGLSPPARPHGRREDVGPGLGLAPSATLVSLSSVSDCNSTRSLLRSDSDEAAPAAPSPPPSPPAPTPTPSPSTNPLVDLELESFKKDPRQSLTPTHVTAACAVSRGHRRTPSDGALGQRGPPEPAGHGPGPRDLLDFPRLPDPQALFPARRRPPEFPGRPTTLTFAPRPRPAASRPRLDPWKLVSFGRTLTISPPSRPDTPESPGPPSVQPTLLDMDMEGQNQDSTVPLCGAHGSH
Chain of PKN2 (human) (Q16513 whole entry, looked up): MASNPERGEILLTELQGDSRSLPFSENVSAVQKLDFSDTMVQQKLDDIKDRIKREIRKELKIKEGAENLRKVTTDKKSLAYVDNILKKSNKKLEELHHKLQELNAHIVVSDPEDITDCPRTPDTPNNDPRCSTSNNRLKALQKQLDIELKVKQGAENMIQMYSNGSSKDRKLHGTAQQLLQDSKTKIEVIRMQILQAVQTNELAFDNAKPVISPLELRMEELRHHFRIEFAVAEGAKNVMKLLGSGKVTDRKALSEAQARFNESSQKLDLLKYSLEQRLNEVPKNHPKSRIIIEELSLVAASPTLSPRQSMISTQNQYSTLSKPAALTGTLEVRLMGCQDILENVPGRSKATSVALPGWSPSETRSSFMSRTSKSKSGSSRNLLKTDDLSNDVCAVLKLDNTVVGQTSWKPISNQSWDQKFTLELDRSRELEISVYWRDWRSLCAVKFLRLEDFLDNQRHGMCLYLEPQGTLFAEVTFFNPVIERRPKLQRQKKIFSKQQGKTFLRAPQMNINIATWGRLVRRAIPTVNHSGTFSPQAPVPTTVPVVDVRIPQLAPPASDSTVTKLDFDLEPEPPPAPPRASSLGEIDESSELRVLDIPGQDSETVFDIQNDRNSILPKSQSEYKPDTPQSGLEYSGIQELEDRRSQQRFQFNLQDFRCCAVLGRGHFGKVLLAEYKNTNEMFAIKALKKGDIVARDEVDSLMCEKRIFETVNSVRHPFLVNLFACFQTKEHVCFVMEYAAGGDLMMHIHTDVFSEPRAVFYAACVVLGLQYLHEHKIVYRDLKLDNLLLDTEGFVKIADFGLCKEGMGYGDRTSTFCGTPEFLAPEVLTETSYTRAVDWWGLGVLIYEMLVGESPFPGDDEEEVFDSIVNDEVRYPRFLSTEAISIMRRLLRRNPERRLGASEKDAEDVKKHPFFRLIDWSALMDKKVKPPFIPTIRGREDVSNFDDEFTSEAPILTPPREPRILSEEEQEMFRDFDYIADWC
Chain of AURKB (human) (Q96GD4 whole entry, looked up): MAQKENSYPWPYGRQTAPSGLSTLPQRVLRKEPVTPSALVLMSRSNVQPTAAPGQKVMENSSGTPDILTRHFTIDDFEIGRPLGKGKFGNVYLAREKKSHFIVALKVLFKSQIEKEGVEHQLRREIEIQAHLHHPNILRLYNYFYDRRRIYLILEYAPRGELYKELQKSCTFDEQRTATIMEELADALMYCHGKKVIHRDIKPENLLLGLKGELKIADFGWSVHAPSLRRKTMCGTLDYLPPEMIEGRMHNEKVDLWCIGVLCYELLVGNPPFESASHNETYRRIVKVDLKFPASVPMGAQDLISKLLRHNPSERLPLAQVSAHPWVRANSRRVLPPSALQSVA
Chain of MAP3K11 (human) (Q16584 whole entry, looked up): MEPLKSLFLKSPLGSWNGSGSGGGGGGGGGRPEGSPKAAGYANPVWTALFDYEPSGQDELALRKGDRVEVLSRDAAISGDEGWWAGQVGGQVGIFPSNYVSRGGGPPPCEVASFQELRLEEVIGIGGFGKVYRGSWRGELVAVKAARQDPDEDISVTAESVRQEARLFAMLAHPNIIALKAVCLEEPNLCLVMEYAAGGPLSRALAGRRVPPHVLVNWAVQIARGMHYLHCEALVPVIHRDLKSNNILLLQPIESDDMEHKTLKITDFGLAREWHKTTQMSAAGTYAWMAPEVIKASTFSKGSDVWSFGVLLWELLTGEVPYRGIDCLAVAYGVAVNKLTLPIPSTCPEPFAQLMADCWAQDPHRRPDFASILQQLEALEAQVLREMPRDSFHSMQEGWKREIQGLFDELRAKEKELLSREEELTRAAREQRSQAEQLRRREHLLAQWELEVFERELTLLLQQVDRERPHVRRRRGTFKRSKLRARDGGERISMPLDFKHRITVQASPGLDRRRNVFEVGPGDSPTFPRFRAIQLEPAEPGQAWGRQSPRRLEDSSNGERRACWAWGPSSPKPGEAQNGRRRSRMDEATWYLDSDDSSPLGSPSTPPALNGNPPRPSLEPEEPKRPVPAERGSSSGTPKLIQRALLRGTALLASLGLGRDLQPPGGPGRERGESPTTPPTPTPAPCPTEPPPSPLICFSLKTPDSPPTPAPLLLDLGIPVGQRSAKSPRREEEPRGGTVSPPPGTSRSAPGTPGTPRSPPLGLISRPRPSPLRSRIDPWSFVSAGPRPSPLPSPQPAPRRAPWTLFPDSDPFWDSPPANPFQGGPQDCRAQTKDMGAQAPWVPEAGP

Structure (SMILES): Nc1nnc2[nH]c3ccccc3nc1-2
residual activity (STK4 (human)): 94.5%
residual activity (MAP3K9 (human)): 97.7%
residual activity (AURKB (human)): 101%
residual activity (MAP4K5 (human)): 96.8%
residual activity (CSNK1G3 (human)): 95.6%
residual activity (SRPK1 (human)): 101%
residual activity (EPHB2 (human)): 103%
residual activity (EGFR (human)): 96.4%
residual activity (TEK (human)): 97%
residual activity (MARK4 (human)): 99.8%
residual activity (PRKCA (human)): 71%
residual activity (PIM2 (human)): 105%
residual activity (PKN2 (human)): 98.7%
residual activity (TNK2 (human)): 101%
residual activity (PRKD1 (human)): 94.9%
residual activity (CAMK1D (human)): 98.3%
residual activity (CDK6 CCND3 (human)): 105%
residual activity (CDK5 CDK5R1 p35 (human)): 88.7%
residual activity (MAP3K3 (human)): 103%
residual activity (PRKCB2 (human)): 88.5%
residual activity [1]: 99.8%
residual activity (HCK (human)): 98.6%
residual activity (MAP3K11 (human)): 96.3%
residual activity (ACVRL1 (human)): 105%
residual activity (IGF1R (human)): 97.5%
residual activity (TYRO3 (human)): 101%
residual activity (MAPKAPK3 (human)): 101%
residual activity (MAP3K14 (human)): 99.2%
residual activity (RPS6KA4 KD2 (human)): 79%
residual activity (PDGFRA (human)): 103%
residual activity (LYN (human)): 108% and 97%
residual activity (PRKG1 (human)): 93% and 97.7%
residual activity (ABL1 (human)): 91.6%
residual activity (WNK3 (human)): 98%
residual activity (RPS6KB2 (human)): 102%
residual activity (PLK2 (human)): 101%
residual activity (SLK (human)): 92.5%
residual activity (EPHA5 (human)): 90.3%
residual activity (MAP4K2 (human)): 91.7%
residual activity (STK39 (human)): 116%
residual activity (MAP3K10 (human)): 93.1%
residual activity (CLK3 (human)): 94.3%

residual activity (STK4 (human)): 54.2%
residual activity (MAP3K9 (human)): 51.5%
residual activity (AURKB (human)): 81%
residual activity (MAP4K5 (human)): 24.1%
residual activity (CSNK1G3 (human)): 101%
residual activity (SRPK1 (human)): 96.7%
residual activity (EPHB2 (human)): 81.4%
residual activity (EGFR (human)): 91.1%
residual activity (TEK (human)): 106%
residual activity (MARK4 (human)): 77.6%
residual activity (PRKCA (human)): 105%
residual activity (PIM2 (human)): 93.2%
residual activity (PKN2 (human)): 85.4%
residual activity (TNK2 (human)): 74.7%
residual activity (PRKD1 (human)): 82.1%
residual activity (CAMK1D (human)): 79.1%
residual activity (CDK6 CCND3 (human)): 40.9%
residual activity (CDK5 CDK5R1 p35 (human)): 24.7%
residual activity (MAP3K3 (human)): 97.4%
residual activity (PRKCB2 (human)): 101%
residual activity [1]: 104%
residual activity (HCK (human)): 43.1%
residual activity (MAP3K11 (human)): 42.5%
residual activity (ACVRL1 (human)): 107%
residual activity (IGF1R (human)): 106%
residual activity (TYRO3 (human)): 69.8%
residual activity (MAPKAPK3 (human)): 105%
residual activity (MAP3K14 (human)): 75.7%
residual activity (RPS6KA4 KD2 (human)): 97.6%
residual activity (PDGFRA (human)): 82.9%
residual activity (LYN (human)): 28.1% and 52.4%
residual activity (PRKG1 (human)): 82.7% and 86.1%
residual activity (ABL1 (human)): 43.1%
residual activity (WNK3 (human)): 93%
residual activity (RPS6KB2 (human)): 83.7%
residual activity (PLK2 (human)): 100%
residual activity (SLK (human)): 80.2%
residual activity (EPHA5 (human)): 102%
residual activity (MAP4K2 (human)): 44%
residual activity (STK39 (human)): 105%
residual activity (MAP3K10 (human)): 92.3%
residual activity (CLK3 (human)): 75.1%
Structure (SMILES): CC(=O)O/N=C1\C(=C2\C(=O)Nc3cc(Br)ccc32)Nc2ccccc21

Structure (SMILES): O=C1NC(=O)/C(=C\c2ccc3nccnc3c2)S1
residual activity (STK4 (human)): 95%
residual activity (MAP3K9 (human)): 102%
residual activity (AURKB (human)): 101%
residual activity (MAP4K5 (human)): 85.4%
residual activity (CSNK1G3 (human)): 79.9%
residual activity (SRPK1 (human)): 110%
residual activity (EPHB2 (human)): 94.7%
residual activity (EGFR (human)): 81.6%
residual activity (TEK (human)): 89.5%
residual activity (MARK4 (human)): 89.9%
residual activity (PRKCA (human)): 102%
residual activity (PIM2 (human)): 100%
residual activity (PKN2 (human)): 107%
residual activity (TNK2 (human)): 91.4%
residual activity (PRKD1 (human)): 94.8%
residual activity (CAMK1D (human)): 102%
residual activity (CDK6 CCND3 (human)): 95.8%
residual activity (CDK5 CDK5R1 p35 (human)): 97.9%
residual activity (MAP3K3 (human)): 100%
residual activity (PRKCB2 (human)): 103%
residual activity [1]: 103%
residual activity (HCK (human)): 92.2%
residual activity (MAP3K11 (human)): 97.5%
residual activity (ACVRL1 (human)): 107%
residual activity (IGF1R (human)): 92%
residual activity (TYRO3 (human)): 99.1%
residual activity (MAPKAPK3 (human)): 104%
residual activity (MAP3K14 (human)): 101%
residual activity (RPS6KA4 KD2 (human)): 115%
residual activity (PDGFRA (human)): 106%
residual activity (LYN (human)): 99.2% and 99.6%
residual activity (PRKG1 (human)): 113% and 98.3%
residual activity (ABL1 (human)): 95.7%
residual activity (WNK3 (human)): 85.8%
residual activity (RPS6KB2 (human)): 94.7%
residual activity (PLK2 (human)): 95.7%
residual activity (SLK (human)): 96.3%
residual activity (EPHA5 (human)): 99.5%
residual activity (MAP4K2 (human)): 86.1%
residual activity (STK39 (human)): 104%
residual activity (MAP3K10 (human)): 94.2%
residual activity (CLK3 (human)): 80.8%

Structure (SMILES): COc1cc2ncnc(N3CCN(C(=O)Nc4ccc(Oc5ccccc5)cc4)CC3)c2cc1OC
residual activity (STK4 (human)): 97.1%
residual activity (MAP3K9 (human)): 100%
residual activity (AURKB (human)): 76.1%
residual activity (MAP4K5 (human)): 81.6%
residual activity (CSNK1G3 (human)): 82.7%
residual activity (SRPK1 (human)): 97.5%
residual activity (EPHB2 (human)): 98.2%
residual activity (EGFR (human)): 79.1%
residual activity (TEK (human)): 92.6%
residual activity (MARK4 (human)): 76.5%
residual activity (PRKCA (human)): 98%
residual activity (PIM2 (human)): 101%
residual activity (PKN2 (human)): 99.1%
residual activity (TNK2 (human)): 77.1%
residual activity (PRKD1 (human)): 102%
residual activity (CAMK1D (human)): 104%
residual activity (CDK6 CCND3 (human)): 100%
residual activity (CDK5 CDK5R1 p35 (human)): 99.8%
residual activity (MAP3K3 (human)): 83.7%
residual activity (PRKCB2 (human)): 102%
residual activity [1]: 96.5%
residual activity (HCK (human)): 91.7%
residual activity (MAP3K11 (human)): 97%
residual activity (ACVRL1 (human)): 93%
residual activity (IGF1R (human)): 103%
residual activity (TYRO3 (human)): 99.6%
residual activity (MAPKAPK3 (human)): 94.6%
residual activity (MAP3K14 (human)): 105%
residual activity (RPS6KA4 KD2 (human)): 96.2%
residual activity (PDGFRA (human)): 16.4%
residual activity (LYN (human)): 102% and 97.8%
residual activity (PRKG1 (human)): 85.6% and 98.7%
residual activity (ABL1 (human)): 97.4%
residual activity (WNK3 (human)): 101%
residual activity (RPS6KB2 (human)): 92.4%
residual activity (PLK2 (human)): 105%
residual activity (SLK (human)): 97.9%
residual activity (EPHA5 (human)): 98.3%
residual activity (MAP4K2 (human)): 94.7%
residual activity (STK39 (human)): 83.2%
residual activity (MAP3K10 (human)): 92%
residual activity (CLK3 (human)): 88.9%
